In the test the target is IDO1 (Homo sapiens, UniProt P14902). As to the kind of experiment: IDO1 Cellular Assay in HeLa Cells Stimulated with IFNγ. The test is classed as cell-based. Conditions: IFNγ 100 ng/mL, 300 uM L-tryptophan, about 48 hours, fluorescence readout, read-out: IDO1 HELA Cell Assay, IC50.
Sequence of IDO1 (P14902 whole entry): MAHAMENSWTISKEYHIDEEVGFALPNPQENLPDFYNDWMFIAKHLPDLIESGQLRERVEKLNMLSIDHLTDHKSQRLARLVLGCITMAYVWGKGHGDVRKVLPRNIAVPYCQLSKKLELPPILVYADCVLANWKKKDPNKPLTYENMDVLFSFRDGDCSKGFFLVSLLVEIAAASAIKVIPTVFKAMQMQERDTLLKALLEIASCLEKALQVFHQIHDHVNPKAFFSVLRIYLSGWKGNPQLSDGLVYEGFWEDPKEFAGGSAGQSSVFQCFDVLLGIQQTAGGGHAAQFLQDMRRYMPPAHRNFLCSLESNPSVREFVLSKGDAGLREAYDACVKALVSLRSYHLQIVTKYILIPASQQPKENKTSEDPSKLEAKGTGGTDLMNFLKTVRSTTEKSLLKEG
Broadly, the IC50 is the concentration needed to halve the response being measured. Turning to `Cc1c(C#N)cccc1C1CCN(C(=O)Cn2nc(C(=O)N3C[C@@H](C)O[C@@H](C)C3)c3c2CCC3)CC1` [Example 129, 3-[1-({3-[(2R,6S)-2,6-dimethylmorpholine-4-carbonyl]-5,6-dihydrocyclopenta[c]pyrazol-1(4H)-yl}acetyl)piperidin-4-yl]-2-methylbenzonitrile], the 50% inhibitory concentration (IC50) stood at 64.1 nM.
For `Cc1cccc(C2CCN(C(=O)Cn3nc(C(=O)N4CCC(O)CC4)c4c3CCC4)CC2(F)F)c1C` (single isomer, unassigned) [Example 15, 1-(4-(2,3-dimethylphenyl)-3,3-difluoropiperidin-1-yl)-2-(3-(4-hydroxypiperidine-1-carbonyl)-5,6-dihydrocyclopenta[c]pyrazol-1(4H)-yl)ethanone] the value was 11.6 nM; for `Cc1cccc(C2CCN(C(=O)Cn3nc(C(=O)N4CC(C)(O)C4)c4c3CCC4)CC2)c1C` [Example 50, 1-(4-(2,3-dimethylphenyl)piperidin-1-yl)-2-(3-(3-hydroxy-3-methylazetidine-1-carbonyl)-5,6-dihydrocyclopenta[c]pyrazol-1(4H)-yl)ethan-1-one], 40.1 nM; for `Cc1cc(F)ccc1C1CCN(C(=O)Cn2nc(C(=O)N3C[C@@H](C)O[C@@H](C)C3)c3c2CCC3)CC1` [Example 92, 2-{3-[(2R,6S)-2,6-dimethylmorpholine-4-carbonyl]-5,6-dihydrocyclopenta[c]pyrazol-1(4H)-yl}-1-[4-(4-fluoro-2-methylphenyl)piperidin-1-yl]ethan-1-one], 14.4 nM.
The result for `Cc1cc(F)ccc1C1CCN(C(=O)Cn2nc(C(=O)N3CC[C@H](O)[C@@H](F)C3)c3c2CCC3)CC1` [Example 52, 1-(4-(4-fluoro-2-methylphenyl)piperidin-1-yl)-2-(3-((3S,4S)-3-fluoro-4-hydroxypiperidine-1-carbonyl)-5,6-dihydrocyclopenta[c]pyrazol-1(4H)-yl)ethanone] reads 111 nM; that for `C[C@@H]1CN(C(=O)c2nn(CC(=O)N3CCC(c4cccc(F)c4)CC3)c3c2CCC3)C[C@H](C)O1` [Example 130, 2-{3-[(2R,6S)-2,6-dimethylmorpholine-4-carbonyl]-5,6-dihydrocyclopenta[c]pyrazol-1(4H)-yl}-1-[4-(3-fluorophenyl)piperidin-1-yl]ethan-1-one], 66.1 nM; that for `Cc1cccc(C2CCN(C(=O)Cn3nc(C(=O)N4CCOCC4)c4c3CCC4)CC2)c1C` [Example 46, 1-(4-(2,3-dimethylphenyl)piperidin-1-yl)-2-(3-(morpholine-4-carbonyl)-5,6-dihydrocyclopenta[c]pyrazol-1(4H)-yl)ethan-1-one], 16 nM.
`COc1ccc(Cl)cc1C1CCN(C(=O)Cn2nc(C(=O)N3C[C@@H](C)O[C@@H](C)C3)c3c2CCC3)CC1` [Example 170, 1-[4-(5-chloro-2-methoxyphenyl)piperidin-1-yl]-2-{3-[(2R,6S)-2,6-dimethylmorpholine-4-carbonyl]-5,6-dihydrocyclopenta[c]pyrazol-1(4H)-yl}ethan-1-one]: the IC50 worked out at 361 nM.
With `C[C@@H]1CN(C(=O)c2nn(CC(=O)N3CCC(c4cccc(Cl)c4Cl)CC3)c3c2CCC3)C[C@H](C)O1` [Example 87, 1-[4-(2,3-dichlorophenyl)piperidin-1-yl]-2-{3-[(2R,6S)-2,6-dimethylmorpholine-4-carbonyl]-5,6-dihydrocyclopenta[c]pyrazol-1(4H)-yl}ethan-1-one], the half-maximal inhibitory concentration (IC50) came out at 7.8 nM.
The result for `Cc1cccc(C2CCN(C(=O)Cn3nc(C(=O)N4CCC(O)CC4)c4c3CCCC4)CC2)c1C` [Example 34, 1-(4-(2,3-dimethylphenyl)piperidin-1-yl)-2-(3-(4-hydroxypiperidine-1-carbonyl)-4,5,6,7-tetrahydro-1H-indazol-1-yl)ethanone] reads 1.2 nM.
